Measured values published in paper PMC9412362, “Design, Synthesis, and Characterization of Novel Coordination Compounds of Benzimidazole Derivatives with Cadmium” (Pharmaceutics, 2022).
Converted amounts (≈) assume the structure as drawn. Read-outs that look alike come from different tables or passages of the source.

Tests used:
T98G cells = assay: MTT cytotoxicity assay, glioblastoma T98G; format: cell-based, human; conditions: Homo sapiens, MTT assay after 24 h of incubation, read-out: IC50 ± SD, T98G
Method: (§1) Samples of complexes (about 20 mg) were digested in a concentrated mixture of 36% HCl (1 mL) and 65% HNO3 (6 mL). The contents of Cd (II) in the solid complexes were determined with an F-AAS spectrometer (Analytik Jena, contraAA 300, Jena, Germany) with a continuous source of light and using an air/acetylene flame (Analytik Jena, contraAA 300). Absorbances were measured at the analytical spectral lines at 228.8 nm for Cd (II). The limit of quantification was 0.004 mg/L for Cd (II). The solid samples were decomposed using an Anton Paar Multiwave 3000 (Graz, Austria) closed-system instrument. Mineralization was carried out for 45 min at 240 °C under a pressure of 60 bar. The contents of carbon, hydrogen, and nitrogen were determined with an instrument from Vario Micro Company Elementar Analysensysteme GmbH (Langenselbold, Germany). FTIR spectra were recorded with an IR Tracer-100 Schimadzu Spectrometer (4000–600 cm^−1 with an accuracy of recording of 1 cm^−1, Kyoto, Japan) using KBr pellets. The thermal analyses were carried out with a Netzsch STA 449 F1 Jupiter thermoanalyzer (Netzsch-Geratebau GmbH, Selb, Germany) coupled with a Netzsch Aeolos Quadro QMS 403 mass spectrometer (Netzsch-Geratebau GmbH, Selb, Germany). The samples were heated up to 1000 °C in corundum crucibles with a heating rate of 10 °C/min in an atmosphere of synthetic air (20% O2, 80% N2). The cytotoxic effects of the compounds were evaluated using glioblastoma (T98G), neuroblastoma (SK-N-AS), and lung adenocarcinoma (A549) cell lines and normal human skin fibroblasts (CCD-1059Sk). T98G and SK-N-AS cells were cultured in high-glucose DMEM and A549 cells were cultured in DMEM/F12, while CCD-1059Sk cells were cultured in MEM. All media were supplemented with 10% (FBS), 100 U/mL of penicillin, and […] of streptomycin (PenStrep). Cells were incubated at 37 °C in a humidified atmosphere of 5% CO2. Stock solutions were prepared by dissolving the compounds in sterile dimethyl sulfoxide (DMSO) to obtain a concentration of 50 mg/mL. The cells were seeded into sterile 96-well plates (Nunc) at a density of 1 × 10^5 cells/mL. After 24 h of incubation, the medium was removed from each well, and then the cells were incubated for the next 24 h with different concentrations of the tested compounds (1–100 µg/mL) in their respective media containing 2% FBS. The cytotoxicity of the compounds was evaluated using an MTT assay, which was based on the conversion of 3-(4,5-dimethylthiazol-2-yl)-2,5-diphenyltetrazolium bromide (MTT) into dark-blue formazan crystals. Briefly, after 24 h of incubation of the cells with varying concentrations of the tested compounds, all culture media were removed from the plates. The cells were washed with PBS, and then 100 µL of medium containing 10% MTT solution (5 mg/mL) was added to each well. After 3 h of incubation, 100 µL (per well) of 10% SDS buffer solution was added to solubilize the formazan crystals. After overnight incubation, the absorbance was measured at 570 nm using a microplate reader (Epoch, BioTek Instruments). Experiments were repeated twice, and the measurements in each experiment were run in triplicate. The viability of the investigated cells was expressed as the percentage of the viability of the untreated cells, and the results were transformed into IC50 values (expressed as mean ± SD). The complexes were screened for antibacterial and antifungal activity by using the micro-dilution broth method with Mueller–Hinton broth for the growth of bacteria or Mueller–Hinton broth with 2% glucose for the growth of fungi. […]

SK-N-AS cells = assay: MTT cytotoxicity assay, neuroblastoma SK-N-AS; format: cell-based, human; conditions: MTT assay after 24 h of incubation, read-out: IC50 ± SD, SK-N-AS
Method: as §1

A549 cells = assay: MTT cytotoxicity assay, lung adenocarcinoma A549; format: cell-based, human; conditions: Homo sapiens; lung carcinoma A549, MTT assay after 24 h of incubation; read-out: IC50 ± SD, A549
Method: as §1

CCD-1059Sk cells = assay: MTT cytotoxicity assay, normal human skin fibroblasts CCD-1059Sk; format: cell-based; conditions: normal human fibroblasts CCD-1059Sk, MTT assay after 24 h of incubation; read-out: IC50 ± SD, CCD-1059-Sk
Method: as §1

S. aureus ATCC 25923 = assay: MIC, micro-dilution broth method; format: cell-based, Staphylococcus aureus; conditions: Staphylococcus aureus
Method: as §1

[1] = system: S. epidermidis ATCC 12228; assay: MIC, micro-dilution broth method; format: cell-based, Staphylococcus epidermidis; conditions: Staphylococcus epidermidis
Method: as §1

M. luteus ATCC 10240 = assay: MIC, micro-dilution broth method; format: cell-based, Micrococcus luteus; conditions: Micrococcus luteus
Method: as §1

E. faecalis ATCC 29212 = assay: MIC, micro-dilution broth method; format: cell-based, Enterococcus faecalis; conditions: Enterococcus faecalis
Method: as §1

B. subtilis ATCC 6633 = assay: MIC, micro-dilution broth method; format: cell-based, Bacillus subtilis; conditions: Bacillus subtilis
Method: as §1

B. cereus ATCC 10876 = assay: MIC, micro-dilution broth method; format: cell-based, Bacillus cereus; conditions: Bacillus cereus
Method: as §1

[2] = system: S. typhimurium ATCC 14028; assay: MIC, micro-dilution broth method; format: cell-based, Salmonella Typhimurium; conditions: Salmonella enterica, Gram-negative bacteria
Method: as §1

E. coli ATCC 25922 = assay: MIC, micro-dilution broth method; format: cell-based, Escherichia coli; conditions: Escherichia coli, ATCC25922, Gram-negative bacteria
Method: as §1

P. mirabilis ATCC 12453 = assay: MIC, micro-dilution broth method; format: cell-based, Proteus mirabilis; conditions: Proteus mirabilis, ATCC12453, Gram-negative bacteria
Method: as §1

K. pneumoniae ATCC 13883 = assay: MIC, micro-dilution broth method; format: cell-based, Klebsiella pneumoniae; conditions: Klebsiella pneumoniae, ATCC13883, Gram-negative bacteria
Method: as §1

P. aeruginosa ATCC 9027 = assay: MIC, micro-dilution broth method; format: cell-based, Pseudomonas aeruginosa; conditions: Pseudomonas aeruginosa, ATCC9027, Gram-negative bacteria
Method: as §1

C. glabrata ATCC 2091 = assay: MIC, micro-dilution broth method; format: cell-based
Method: as §1

C. albicans ATCC 102231 = assay: MIC, micro-dilution broth method; format: cell-based, Candida albicans
Method: as §1

[3] = system: C. parapsilosis ATCC 22019; assay: MIC, micro-dilution broth method; format: cell-based, Candida parapsilosis; conditions: Yeasts, micro-dilution broth with 2% glucose
Method: as §1

[4] = Yeasts, micro-dilution broth with 2% glucose

For `COc1cc([C@@H]2c3cc4c(cc3[C@@H](O[C@@H]3O[C@@H]5CO[C@@H](C)O[C@H]5[C@H](O)[C@H]3O)[C@H]3COC(=O)[C@H]23)OCO4)cc(OC)c1O` [Etoposide, reference compound], the IC50 (T98G cells) was > 170 µM, the IC50 (SK-N-AS cells; Homo sapiens, SK-N-AS, 24 h) was 115 µM and the IC50 (SK-N-AS cells) was 115 ± 3.5 µM. The IC50 (A549 cells) was > 170 µM and the IC50 (CCD-1059Sk cells) was > 170 µM.

For `c1cc(-c2nc3ccncc3[nH]2)ccn1` [L1], the IC50 (T98G cells) was 210 ± 12 µM, the IC50 (SK-N-AS cells; Homo sapiens, SK-N-AS, 24 h) was > 509 µM and the IC50 (A549 cells) was > 509 µM. The IC50 (CCD-1059Sk cells) was > 509 µM, the MIC (S. aureus ATCC 25923; ATCC25923, Gram-positive bacteria, micro-dilution broth, read-out: MIC, S. aureus ATCC 25923) was > 1000 µg/mL and the MIC ([1]; ATCC12228, Gram-positive bacteria, micro-dilution broth, read-out: MIC, S. epidermidis ATCC 12228) was > 1000 µg/mL. For the same compound, the MIC (M. luteus ATCC 10240; ATCC10240, Gram-positive bacteria, micro-dilution broth, read-out: MIC, M. luteus ATCC 10240) was 500 µg/mL (≈ 2550 µM), the MIC (E. faecalis ATCC 29212; ATCC29212, Gram-positive bacteria, micro-dilution broth, read-out: MIC, E. faecalis ATCC 29212) was > 1000 µg/mL and the MIC (B. subtilis ATCC 6633; ATCC6633, Gram-positive bacteria, micro-dilution broth, read-out: MIC, B. subtilis ATCC 6633) was > 1000 µg/mL. For the same compound, the MIC (B. cereus ATCC 10876; ATCC10876, Gram-positive bacteria, micro-dilution broth, read-out: MIC, B. cereus ATCC 10876) was > 1000 µg/mL, the MIC [2] was > 1000 µg/mL and the MIC (E. coli ATCC 25922) was > 1000 µg/mL. For the same compound, the MIC (P. mirabilis ATCC 12453) was > 1000 µg/mL, the MIC (K. pneumoniae ATCC 13883) was > 1000 µg/mL and the MIC (P. aeruginosa ATCC 9027) was > 1000 µg/mL. The MIC (C. glabrata ATCC 2091; Nakaseomyces glabratus, ATCC2091, read-out: MIC, C. glabrata ATCC 2091) was > 1000 µg/mL, the MIC (C. albicans ATCC 102231; Candida albicans, ATCC102231, read-out: MIC, C. albicans ATCC 102231) was > 1000 µg/mL and the MIC ([3]; Lodderomyces parapsilosis, ATCC22019) was > 1000 µg/mL.

For `C[C@@H]1[C@H](O)[C@@H](C)/C=C/C=C/CC/C=C/C=C/C=C/C=C/C(O[C@H]2O[C@H](C)[C@@H](O)[C@H](N)[C@@H]2O)CC2O[C@](O)(CC(O)C(O)CCC(O)CC(O)CC(O)CC(=O)O[C@H]1C)CC(O)C2C(=O)O` (some centres unmarked) [Nys, nystatin, reference compound], the “MIC, C. glabrata ATCC 2091” value (C. glabrata ATCC 2091; [4]) was 0.48 µg/mL (≈ 0.518 µM), the “MIC, C. albicans ATCC 102231” value (C. albicans ATCC 102231; [4]) was 0.24 µg/mL (≈ 0.259 µM) and the “MIC, C. parapsilosis ATCC 22019” value [3] was 0.24 µg/mL (≈ 0.259 µM).

`CN[C@H](CC(C)C)C(=O)N[C@H]1C(=O)N[C@@H](CC(N)=O)C(=O)N[C@H]2C(=O)N[C@H]3C(=O)N[C@H](C(=O)N[C@H](C(=O)O)c4cc(O)cc(O)c4-c4cc3ccc4O)[C@H](O)c3ccc(c(Cl)c3)Oc3cc2cc(c3O[C@@H]2O[C@H](CO)[C@@H](O)[C@H](O)[C@H]2O[C@H]2C[C@](C)(N)[C@H](O)[C@H](C)O2)Oc2ccc(cc2Cl)[C@H]1O` [Van, Vancomycin, reference compound] gave an MIC (S. aureus ATCC 25923; ATCC25923, read-out: MIC, S. aureus ATCC 25923) of 0.98 µg/mL (≈ 0.676 µM), an MIC ([1]; ATCC12228, read-out: MIC, S. epidermidis ATCC 12228) of 0.98 µg/mL (≈ 0.676 µM) and an MIC (M. luteus ATCC 10240; ATCC10240, read-out: MIC, M. luteus ATCC 10240) of 0.12 µg/mL (≈ 0.0828 µM). It also gave an MIC (E. faecalis ATCC 29212; ATCC29212, read-out: MIC, E. faecalis ATCC 29212) of 1.95 µg/mL (≈ 1.35 µM), an MIC (B. subtilis ATCC 6633; ATCC6633, read-out: MIC, B. subtilis ATCC 6633) of 0.24 µg/mL (≈ 0.166 µM) and an MIC (B. cereus ATCC 10876; ATCC10876, read-out: MIC, B. cereus ATCC 10876) of 0.98 µg/mL (≈ 0.676 µM).
